The target of data set [1] is T1, Cannabinoid receptor 2 (Homo sapiens, UniProt P34972). Briefly: Agonist activity at human CB2 expressed in mouse AtT20 cells assessed as activation of G-protein gated inwardly rectifying K+ channels at 10 uM measured every 2 sec for 2 mins by FLIPR membrane potential assay relative to control. The data set is classed as cell-based. Particulars: filed as agonist.

Data set [2] has as its target T2, Cannabinoid receptor 1 (Homo sapiens, UniProt P21554). Briefly: Agonist activity at human CB1 expressed in mouse AtT20 cells assessed as activation of G-protein gated inwardly rectifying K+ channels at 10 uM measured every 2 sec for 2 mins by FLIPR membrane potential assay. It is filed as cell-based. The note with it: att20, 2 min.
Data set [3] has as its target T1, Cannabinoid receptor 2. As to the kind of experiment: Agonist activity at human CB2 expressed in mouse AtT20 cells assessed as activation of G-protein gated inwardly rectifying K+ channels measured every 2 sec for 2 mins by FLIPR membrane potential assay. The data set is classed as cell-based.
The target in data set [4] is T1, Cannabinoid receptor 2. As to the kind of experiment: Agonist activity at human CB2 expressed in mouse AtT20 cells assessed as maximal activation of G-protein gated inwardly rectifying K+ channels measured every 2 sec for 2 mins by FLIPR membrane potential assay relative to control. It is filed as cell-based. Particulars: filed as agonist.
The target in data set [5] is T2, Cannabinoid receptor 1. Briefly: Agonist activity at CB1 (unknown origin).
Data set [6] addresses T1, Cannabinoid receptor 2. As to the kind of experiment: Agonist activity at CB2 (unknown origin).
Data set [7] deals with T2, Cannabinoid receptor 1. Briefly: Displacement of [3H]-CP55940 from human CB1 expressed in CHO cell membrane incubated for 3 hrs by microbeta scintillation counting method. The data set is classed as cell membranes. (In general: Displacement assays read how much labelled ligand stays bound in the presence of the test substance.)
For data set [8], the target named is T1, Cannabinoid receptor 2. As to the kind of experiment: Displacement of [3H]-CP55940 from human CB2 expressed in CHO cell membrane incubated for 3 hrs by microbeta scintillation counting method. It is filed as cell membranes.
In data set [9] the target is T1, Cannabinoid receptor 2. Briefly: Agonist activity at human CB2 expressed in mouse AtT20 cells assessed as activation of G-protein gated inwardly rectifying K+ channels at 10 uM measured every 2 sec for 2 mins by FLIPR membrane potential assay. It is filed as cell-based.

Activity calls are given as the source filed them. No cut-off for these calls is given here. Where only a bound is given, the exact number is not on record here.

T1 sequence (P34972 whole entry): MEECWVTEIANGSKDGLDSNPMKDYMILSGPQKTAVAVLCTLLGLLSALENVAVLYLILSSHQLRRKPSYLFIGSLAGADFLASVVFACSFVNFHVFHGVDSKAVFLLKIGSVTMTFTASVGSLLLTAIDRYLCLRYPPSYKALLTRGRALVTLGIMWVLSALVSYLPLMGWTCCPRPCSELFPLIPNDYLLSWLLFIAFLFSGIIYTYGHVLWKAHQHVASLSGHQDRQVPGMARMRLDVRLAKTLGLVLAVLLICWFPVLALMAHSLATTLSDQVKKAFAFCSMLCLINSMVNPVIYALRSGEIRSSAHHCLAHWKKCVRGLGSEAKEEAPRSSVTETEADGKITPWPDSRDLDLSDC
T2 sequence (P21554 whole entry): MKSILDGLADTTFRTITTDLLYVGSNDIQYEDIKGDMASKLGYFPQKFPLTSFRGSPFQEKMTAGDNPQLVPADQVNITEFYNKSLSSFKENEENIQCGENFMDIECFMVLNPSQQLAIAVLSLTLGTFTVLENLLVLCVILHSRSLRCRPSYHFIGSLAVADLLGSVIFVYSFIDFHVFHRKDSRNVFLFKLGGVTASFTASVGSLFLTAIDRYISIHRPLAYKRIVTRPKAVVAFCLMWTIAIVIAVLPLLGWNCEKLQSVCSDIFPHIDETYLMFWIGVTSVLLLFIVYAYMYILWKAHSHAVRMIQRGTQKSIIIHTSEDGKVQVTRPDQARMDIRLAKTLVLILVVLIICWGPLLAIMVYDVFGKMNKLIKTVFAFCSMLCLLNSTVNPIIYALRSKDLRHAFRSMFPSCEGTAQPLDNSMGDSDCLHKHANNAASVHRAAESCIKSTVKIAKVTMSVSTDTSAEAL

As to `CC(C)(O)COc1ccc(C(F)(F)F)cc1C#Cc1cc(C(C)(C)C)nn1C[C@H]1CCCO1`, the Activity in data set [1] is 62%; in data set [2], below 50%.
Turning to `CC(C)(O)COc1ccc(C(F)(F)F)cc1-c1ccc2c(C(C)(C)C)nn(C[C@H]3CCCO3)c2c1`, the EC50 in [3] (read-out: EC50) was 673 nM. Besides, the Emax in data set [4] turned out to be 104%. Besides, the Activity in data set [2] is recorded as below 50%.
On the same counts, the results for `CC(C)(O)COc1ccc(C(F)(F)F)cc1-c1ncc2c(C(C)(C)C)nn(C[C@H]3CCCO3)c2n1` are 41 nM, 106% and below 50%.
With `Cn1c(C(C)(C)C)c/c(=N\C(=O)c2cc(C(F)(F)F)ccc2OCC(C)(C)O)n1C[C@H]1CCCO1`, the EC50 in data set [5] is above 10000 nM; in [6], 19 nM. The figures for the Ki in data set [7] and in data set [8] were above 10000 nM and 5.9 nM, respectively.
For the compound `CC(C)(O)COc1ccc(C(F)(F)F)cc1/C=C/c1cc(C(C)(C)C)nn1C[C@H]1CCCO1`, the Activity is 54% in data set [1] and below 50% in data set [2].
Take `CC(C)(O)COc1ccc(C(F)(F)F)cc1-c1nnc2c(C(C)(C)C)nn(C[C@H]3CCCO3)c2n1`: in [3] (read-out: EC50), the EC50 came out at 19 nM. The Emax in [4] is 115%. The results for the inhibitory constant (Ki) in data set [7] and in [8] were above 10000 nM and 17 nM, respectively. In data set [2], the Activity is recorded as below 50%.
For `CC(C)(O)COc1ccc(C(F)(F)F)cc1C(=S)Nc1cc(C(C)(C)C)nn1C[C@H]1CCCO1`, the Activity was 51% in data set [1] and below 50% in data set [2].
On to `CC(C)(O)COc1ccc(C(F)(F)F)cc1CCc1cc(C(C)(C)C)nn1C[C@H]1CCCO1`, for which the pEC50 result in data set [3] was “inactive”. For the same compound, the Activity in [2] and in [9] was below 50% in each case.
On to `CC(C)(O)COc1ccc(C(F)(F)F)cc1NC(=O)Nc1cc(C(C)(C)C)nn1C[C@H]1CCCO1`, for which the Activity in [1] is 54%; in data set [2], below 50%.
Consider `CC(C)(O)COc1ccc(C(F)(F)F)cc1C(=O)Nc1cc(C(C)(C)C)nn1C[C@H]1CCCO1`, for which the Ki in [7] and in [8] was above 10000 nM throughout.
On to `CC(C)(O)COc1ccc(C(F)(F)F)cc1-c1cn(-c2cc(C(C)(C)C)nn2C[C@H]2CCCO2)nn1`, for which the pEC50 result in data set [3] was “inactive”. Also, the Activity in data set [2] and in data set [9] was below 50% throughout.
For the compound `CC(C)(O)COc1ccc(C(F)(F)F)cc1NC(=O)c1cc(C(C)(C)C)nn1C[C@H]1CCCO1`, the EC50 was 6760 nM in data set [3] (read-out: EC50) and 5250 nM in data set [3] (read-out: pEC50 (converted)). Also, the Emax in [4] amounted to 106%. Further, the Activity in data set [2] is below 50%.
Regarding `CC(C)(O)COc1ccc(C(F)(F)F)cc1-c1cc(C(C)(C)C)nn1C[C@H]1CCCO1`, the pEC50 entry in data set [3] is “inactive”. Further, the Activity in [2] and in data set [9] was below 50% throughout.
Regarding `CC(C)(O)COc1ccc(C(F)(F)F)cc1S(=O)(=O)Nc1cc(C(C)(C)C)nn1C[C@H]1CCCO1`, in [3], the pEC50 result was “inactive”. The Activity in data set [2] and in [9] was below 50% in each case.
Consider `CC(C)(O)COc1ccc(C(F)(F)F)cc1Nc1cc(C(C)(C)C)nn1C[C@H]1CCCO1`, for which, in [3], the pEC50 result was “inactive”. Also, the Activity in data set [2] and in [9] was below 50% in each case.
In the case of `CC(C)(O)COc1ccc(C(F)(F)F)cc1-c1ccc(-c2cc(C(C)(C)C)nn2C[C@H]2CCCO2)o1`, in [3], the pEC50 result was “inactive”. Also, the Activity in [2] and in data set [9] was below 50% in each case.
On to `CC(C)(O)COc1ccc(C(F)(F)F)cc1C(=O)Oc1cc(C(C)(C)C)nn1C[C@H]1CCCO1`, for which the EC50 in [3] (read-out: EC50) turned out to be 1280 nM. Further, the Emax in [4] turned out to be 106%. Moreover, in [2], the Activity was below 50%.
For `CN(C(=O)c1cc(C(F)(F)F)ccc1OCC(C)(C)O)c1cc(C(C)(C)C)nn1C[C@H]1CCCO1`, in data set [3], the pEC50 result is “inactive”. In addition, the Activity in data set [2] and in data set [9] was below 50% in each case.
Turning to `CC(C)(O)COc1ccc(C(F)(F)F)cc1CNc1cc(C(C)(C)C)nn1C[C@H]1CCCO1`, in data set [3], the pEC50 result was “inactive”. Also, the Activity in data set [2] and in data set [9] was below 50% in each case.

As usually defined, the Emax is the size of the effect at its maximum, as opposed to the concentration needed. The Ki is a measure of affinity in units of concentration, obtained from inhibition or displacement. High values mean a looser hold on the target, low ones a stronger hold on the target.

For the origin of these results see ChEMBL document CHEMBL4732127, “The discovery of a potent and selective pyrazolo-[2,3-e]-[1,2,4]-triazine cannabinoid type 2 receptor agonist” (Eur J Med Chem, 2021).
